According to ChEMBL document CHEMBL1201862, “PubChem BioAssay data set” (2004):
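Compound exposure: 48 hours, 5 concentrations, 96-well plates. GI50 is the concentration that inhibits growth by half.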 The source made the active and inactive calls. No stated cut-off is given here; in the data, active = GI50 up to about 1.1 µM and inactive = higher.

Columns and labels:
Assay in all cases: DTP human tumour cell line panel, 48 h
UACC-62 = system: UACC-62
HOP-92 = system: HOP-92
K562 = system: K562
UACC-257 = system: UACC-257
NCI-H522 = system: NCI-H522
A498 = system: A498
MDA-N = system: MDA-N
ACHN = system: ACHN
HCC 2998 = system: HCC 2998
U-251 = system: U-251
LOX IMVI = system: LOX IMVI
SF-539 = system: SF-539
786-0 = system: 786-0
MCF7 = system: MCF7
SK-OV-3 = system: SK-OV-3
OVCAR-3 = system: OVCAR-3
MOLT-4 = system: MOLT-4
KM12 = system: KM12
SNB-19 = system: SNB-19
Hs-578T = system: Hs-578T

| SMILES | GI50 (UACC-62) | GI50 (HOP-92) | GI50 (K562) | GI50 (UACC-257) | GI50 (NCI-H522) | GI50 (A498) | GI50 (MDA-N) | GI50 (ACHN) | GI50 (HCC 2998) | GI50 (U-251) | GI50 (LOX IMVI) | GI50 (SF-539) | GI50 (786-0) | GI50 (MCF7) | GI50 (SK-OV-3) | GI50 (OVCAR-3) | GI50 (MOLT-4) | GI50 (KM12) | GI50 (SNB-19) | GI50 (Hs-578T) |
| --- | --- | --- | --- | --- | --- | --- | --- | --- | --- | --- | --- | --- | --- | --- | --- | --- | --- | --- | --- | --- |
| NCC(O)CN.Oc1c(Cl)c(Cl)c(Cl)c(Cl)c1Cl | 19 µM (inactive) | 20.7 µM (inactive) | 27.9 µM (inactive) | 21.2 µM (inactive) | 24.6 µM (inactive) | 17.8 µM (inactive) | 24.4 µM (inactive) | 18.3 µM (inactive) | 17.9 µM (inactive) | 18.8 µM (inactive) | 17.3 µM (inactive) | 24.4 µM (inactive) | 23.6 µM (inactive) | 32.9 µM (inactive) | 21.6 µM (inactive) | 13.5 µM (inactive) | 19.7 µM (inactive) | 20.2 µM (inactive) | 21 µM (inactive) | 33.9 µM (inactive) |
| O=C(OCC12CC3CC(CC(C3)C1)C2)c1ccc(NCc2cc(O)ccc2O)cc1 | 1.6 µM (inactive) | 3.66 µM (inactive) | 0.431 µM (active) | 1.64 µM (inactive) | 0.0662 µM (active) | 3.72 µM (inactive) | 2.81 µM (inactive) | 2.01 µM (inactive) | 1.79 µM (inactive) | 1.02 µM (active) | 1.72 µM (inactive) | 0.544 µM (active) | 0.708 µM (active) | 1.08 µM (active) | 6.08 µM (inactive) | 0.305 µM (active) | 0.115 µM (active) | 1.24 µM (inactive) | 4.33 µM (inactive) | 2.14 µM (inactive) |
| O=C1NC2C(=CC(O)C(O)C2O)c2cc3c(cc21)OCO3 (stereo not given) | 0.421 µM (active) | 0.904 µM (active) | 0.34 µM (active) | 0.695 µM (active) | 0.244 µM (active) | 0.759 µM (active) | 0.0832 µM (active) | 0.144 µM (active) | 0.415 µM (active) | 0.218 µM (active) | 0.308 µM (active) | 0.458 µM (active) | 0.245 µM (active) | 0.338 µM (active) | 0.619 µM (active) | 0.372 µM (active) | 0.109 µM (active) | 0.272 µM (active) | 0.244 µM (active) | 0.0794 µM (active) |
| Cc1cccc(C(=O)O)c1CC1NCCC2c3ccccc3NC12 (stereo not given) | > 100 µM (inactive) | > 100 µM (inactive) | > 100 µM (inactive) | > 100 µM (inactive) | > 100 µM (inactive) | > 100 µM (inactive) | > 100 µM (inactive) | > 100 µM (inactive) | > 100 µM (inactive) | > 100 µM (inactive) | > 100 µM (inactive) | > 100 µM (inactive) | > 100 µM (inactive) | > 100 µM (inactive) | > 100 µM (inactive) | 20.7 µM (inactive) | > 100 µM (inactive) | > 100 µM (inactive) | > 100 µM (inactive) | > 100 µM (inactive) |
| Cn1cncc1CC1COC(=O)C1C(O)c1ccccc1 (stereo not given) | > 100 µM (inactive) | > 100 µM (inactive) | > 100 µM (inactive) | > 100 µM (inactive) | > 100 µM (inactive) | > 100 µM (inactive) | > 100 µM (inactive) | > 100 µM (inactive) | > 100 µM (inactive) | > 100 µM (inactive) | > 100 µM (inactive) | > 100 µM (inactive) | > 100 µM (inactive) | > 100 µM (inactive) | > 100 µM (inactive) | > 100 µM (inactive) | > 100 µM (inactive) | > 100 µM (inactive) | > 100 µM (inactive) | > 100 µM (inactive) |
| O=c1cc(NCc2ccncc2)[nH]c(=O)[nH]1 | > 100 µM (inactive) | > 100 µM (inactive) | > 100 µM (inactive) | > 100 µM (inactive) | > 100 µM (inactive) | > 100 µM (inactive) | > 100 µM (inactive) | > 100 µM (inactive) | > 100 µM (inactive) | > 100 µM (inactive) | > 100 µM (inactive) | > 100 µM (inactive) | > 100 µM (inactive) | > 100 µM (inactive) | > 100 µM (inactive) | > 100 µM (inactive) | > 100 µM (inactive) | > 100 µM (inactive) | > 100 µM (inactive) | > 100 µM (inactive) |
| CNC(=O)[C@H](Cc1ccccc1)NC(=O)N(CCC#N)CCN(C(=O)N[C@@H](Cc1ccccc1)C(=O)OC)c1ccccc1 | > 100 µM (inactive) | > 100 µM (inactive) | > 100 µM (inactive) | > 100 µM (inactive) | > 100 µM (inactive) | > 100 µM (inactive) | > 100 µM (inactive) | > 100 µM (inactive) | > 10 µM (inactive) | > 100 µM (inactive) | > 100 µM (inactive) | > 100 µM (inactive) | > 100 µM (inactive) | 15.7 µM (inactive) | > 100 µM (inactive) | > 100 µM (inactive) | > 100 µM (inactive) | > 100 µM (inactive) | > 100 µM (inactive) | > 100 µM (inactive) |
| COCCCNC(=O)C1=C(C)NC(C)=C(C(=O)NCCCOC)C1 | > 100 µM (inactive) | 89.3 µM (inactive) | 46 µM (inactive) | > 100 µM (inactive) | 9.23 µM (inactive) | > 100 µM (inactive) | > 100 µM (inactive) | > 100 µM (inactive) | > 100 µM (inactive) | > 100 µM (inactive) | > 100 µM (inactive) | > 100 µM (inactive) | > 100 µM (inactive) | > 100 µM (inactive) | > 100 µM (inactive) | > 100 µM (inactive) | > 100 µM (inactive) | > 100 µM (inactive) | > 100 µM (inactive) | 86.5 µM (inactive) |
| COc1ccc(OC)c(NS(=O)(=O)c2ccc3nc(C)n(NS(=O)(=O)c4cc(OC)ccc4OC)c(=O)c3c2)c1 | > 100 µM (inactive) | > 100 µM (inactive) | 32.6 µM (inactive) | > 100 µM (inactive) | > 100 µM (inactive) | > 100 µM (inactive) | 41.7 µM (inactive) | > 100 µM (inactive) | 38.6 µM (inactive) | > 100 µM (inactive) | 77.6 µM (inactive) | > 100 µM (inactive) | > 100 µM (inactive) | 87.1 µM (inactive) | > 100 µM (inactive) | > 100 µM (inactive) | 15.2 µM (inactive) | 62.5 µM (inactive) | > 100 µM (inactive) | > 100 µM (inactive) |
| CC(=O)N1C2=CCCC2(C)c2ccccc21 (stereo not given) | 80.4 µM (inactive) | 26.9 µM (inactive) | 33.8 µM (inactive) | 68.7 µM (inactive) | 26.8 µM (inactive) | > 100 µM (inactive) | > 100 µM (inactive) | > 100 µM (inactive) | 26.5 µM (inactive) | > 100 µM (inactive) | > 100 µM (inactive) | > 100 µM (inactive) | > 100 µM (inactive) | > 100 µM (inactive) | > 100 µM (inactive) | 37.5 µM (inactive) | 62.8 µM (inactive) | 64.9 µM (inactive) | > 100 µM (inactive) | > 100 µM (inactive) |
| Cc1n[nH]c(=O)n1/N=C\CC/C=N\n1c(C)n[nH]c1=O | > 100 µM (inactive) | > 100 µM (inactive) | > 100 µM (inactive) | > 100 µM (inactive) | > 100 µM (inactive) | > 100 µM (inactive) | > 100 µM (inactive) | > 100 µM (inactive) | > 100 µM (inactive) | > 100 µM (inactive) | > 100 µM (inactive) | > 100 µM (inactive) | > 100 µM (inactive) | > 100 µM (inactive) | > 100 µM (inactive) | > 100 µM (inactive) | > 100 µM (inactive) | > 100 µM (inactive) | > 100 µM (inactive) | > 100 µM (inactive) |
| CCCN1C(=O)CCC2=C1CCc1c2ccc(Cl)c1Cl | 0.492 µM (active) | 21.8 µM (inactive) | 35 µM (inactive) | 39.9 µM (inactive) | 23.3 µM (inactive) | 13 µM (inactive) | 46 µM (inactive) | 24.3 µM (inactive) | 21.3 µM (inactive) | 22.9 µM (inactive) | 25.6 µM (inactive) | 25.9 µM (inactive) | 31.9 µM (inactive) | 42.1 µM (inactive) | 24.3 µM (inactive) | 23 µM (inactive) | 26.2 µM (inactive) | 38 µM (inactive) | 26.8 µM (inactive) | 0.0472 µM (active) |
| COc1nc(N=P(c2ccccc2)(c2ccccc2)c2ccccc2)cc(=O)[nH]1 | > 100 µM (inactive) | > 100 µM (inactive) | > 100 µM (inactive) | > 100 µM (inactive) | > 100 µM (inactive) | > 100 µM (inactive) | > 100 µM (inactive) | > 100 µM (inactive) | > 100 µM (inactive) | > 100 µM (inactive) | > 100 µM (inactive) | > 100 µM (inactive) | > 100 µM (inactive) | > 100 µM (inactive) | > 100 µM (inactive) | > 100 µM (inactive) | > 100 µM (inactive) | > 100 µM (inactive) | > 100 µM (inactive) | > 100 µM (inactive) |
| O=C(c1cc(Cl)cc(Cl)c1)N1CCN(C(=O)c2cc(Cl)cc(Cl)c2)C1=S | 9.91 µM (inactive) | 6.65 µM (inactive) | 8.39 µM (inactive) | 13.3 µM (inactive) | 4.38 µM (inactive) | 15.5 µM (inactive) | 14.1 µM (inactive) | 16 µM (inactive) | 16.7 µM (inactive) | 13.1 µM (inactive) | 3.31 µM (inactive) | 7.28 µM (inactive) | 2.4 µM (inactive) | 3.08 µM (inactive) | 16.3 µM (inactive) | 10.9 µM (inactive) | 3.94 µM (inactive) | 11.7 µM (inactive) | 18.3 µM (inactive) | 24.2 µM (inactive) |
